Measurements reported in US20020022215A1 (priority 2000, published 2002).
Where two headings read alike, the source gives them in different places.

Assays:
[1] = system: poliovirus (PV1); type: cell-based, Poliovirus-1
[2] = system: coliphage MS2; type: cell-based, coliphage MS2 (ATCC 15597-B1); conditions: for log10 reduction of MS2 / reduction of MS2: in NaCl, UV light
[3] = system: HAV; type: cell-based, hepatitis A virus, strain HM175; conditions: for reduction of HAV: in plasma
[4] = system: Klebsiella oxytoca; experiment: Inactivation of Klebsiella oxytoca in human plasma; type: cell-based; conditions: 10^−5 M with light (FIG. 7)
[5] = system: E. coli B; type: cell-based, Escherichia coli B (ATCC 11303); conditions: for log10 reduction of E. coli B / percentage reduction of E. coli B: 10^−3 M in NaCl, 365 nm UV; for log10 reduction of Escherichia coli B / percentage reduction of Escherichia coli B: 365 nm light
[6] = system: Escherichia coli B; experiment: Initial studies: inactivation of Escherichia coli B with and without aeration of the medium; type: cell-based
Description: Light alone, or porphyrin alone, were ineffective.

[7] = system: Chinese Hamster Ovary (CHO) cells
[8] = system: E. coli B; experiment: Inactivation of E. coli B on porphyrin-containing cellulose acetate membranes; type: cell-based, Escherichia coli B (ATCC 11303); conditions: cellulose acetate membranes containing the porphyrin, UV light, 100 minutes
Experimental: Cultures of E. coli B (ATCC 11303) were grown the day before an experiment to log phase growth in 50 milliliters of tryptic soy broth (TSB) followed by centrifugation at 3000 rpm for 10 minutes and at 4° C. The supernatant was drawn off and discarded and pellets were resuspended in 10 mL of 0.2 M phosphate buffered saline (PBS; pH 7.2). The centrifugation-resuspension process was repeated for a total of three times. Preparations were kept at 4° C. until ready for use. Bacterial cultures were assayed on tryptic soy agar (TSA) by spot or spread plating duplicate 0.04 to 0.1 ml volumes of the serially diluted preparation onto the agar plates, and was enumerated via colony counts after incubation overnight at 44.5° C. Results are expressed as cfu/ml. On the day of an experiment, the stock preparation was serially diluted in PBS to a target concentration of about […] E. coli cells per milliliter for use on membranes and in solution, respectively. Duplicate 0.1 ml volumes of the experimental samples were spread plated on TSA and incubated overnight at 44.5° C.
When cellulose acetate membranes containing protoporphyrin IX (disodium salt) were exposed to UV light, E. coli B was inactivated by 0.3 log10 cfu/ml in 100 minutes and by about 1.0 log10 (90%) in 300 minutes (FIG. 8).

[9] = 10^−4 M, another experiment (controls 193)
[10] = 10^−4 M, six days, first experiment (controls 271)
[11] = 10^−5 M, another experiment (controls 193)
[12] = 10^−5 M, six days, first experiment (controls 271)

C[n+]1ccc(-c2c3nc(c(-c4cc[n+](C)cc4)c4ccc([nH]4)c(-c4cc[n+](C)cc4)c4nc(c(-c5cc[n+](C)cc5)c5ccc2[nH]5)C=C4)C=C3)cc1.Cc1ccc(S(=O)(=O)[O-])cc1.Cc1ccc(S(=O)(=O)[O-])cc1.Cc1ccc(S(=O)(=O)[O-])cc1.Cc1ccc(S(=O)(=O)[O-])cc1 [TMPyP4, tetrakis (N-methyl-4-pyridiniumyl) porphine tetratosylate]
poliovirus (PV1) in the absence of light [1]: unaffected | MS2 incubated in the dark, infectivity assay ([2]; 10^−3 M in PBS, dark): not detected | log10 reduction of MS2 ([2]; 1 minute): 0.3 log10 | reduction of MS2 ([2]; 1 minute): 50% | log10 reduction of MS2 ([2]; 10 minutes): 0.9 log10 | reduction of MS2 ([2]; 10 minutes): 87% | log10 reduction of MS2 ([2]; 60 minutes): > 3.8 log10 | reduction of MS2 ([2]; 60 minutes): > 99.98% | MS2 in the absence of light ([2]; no light (FIG. 3)): unaffected | MS2 in porphyrin/plasma mixture not exposed to LWUV ([2]; plasma, no LWUV): not detectable | inactivation of HAV in water ([3]; 10^−5M in water, light, 30 min (FIG. 5)): greater than 3 logs | inactivation of Klebsiella oxytoca [4]: over 5 log10 | log10 reduction of E. coli B ([5]; 1 minute): 1.7 log10 | percentage reduction of E. coli B ([5]; 1 minute): 98% | log10 reduction of E. coli B ([5]; 10 minutes): 2.4 log10 | percentage reduction of E. coli B ([5]; 10 minutes): 99.6% | log10 reduction of E. coli B ([5]; 30 minutes): 3.7 log10 | percentage reduction of E. coli B ([5]; 30 minutes): 99.98% | log10 reduction of E. coli B ([5]; 90 minutes): > 5.9 log10 | E. coli B incubated in the dark, infectivity assay ([5]; 10^−3 M in PBS, dark): not detected | infectivity of E. coli B after treatment ([5]; 10^−5 M in PBS, with or without light, one minute (FIG. 9)): decreased below detection limits | inactivation of Escherichia coli B ([6]; 30 minutes, medium aerated by sparging with air): over 3.7 log | inactivation of Escherichia coli B, medium not aerated ([6]; medium not aerated): No inactivation | effect of porphyrin alone on Escherichia coli B ([6]; porphyrin alone, without light): ineffective | CHO colony count [7, 9]: no colony forming units detected | CHO colony count [7, 10]: no cells could be detected | CHO colony count [7, 11]: 183 cfu/well | CHO colony count [7, 12]: 322 cfu/well

Cl.Cl.O=S(=O)(O)c1ccc(-c2c3nc(c(-c4ccc(S(=O)(=O)O)cc4)c4ccc([nH]4)c(-c4ccc(S(=O)(=O)O)cc4)c4nc(c(-c5ccc(S(=O)(=O)O)cc5)c5ccc2[nH]5)C=C4)C=C3)cc1 [TPPS4, meso-tetra-(4-sulfonatophenyl)-porphine dihydrochloride]
MS2 in the absence of light [2]: unaffected | coliphage MS2 after 10 minutes of contact [2]: unaffected | inactivation of coliphage MS2 in plasma [2]: about 3 logs | initial infectious test microbes remaining at the end of each experimental period [2]: approximately 100% | loss of infectivity without UV light [2]: no loss of infectivity | inactivation of HAV in plasma [3]: about 1 log | inactivation of HAV in water [3]: 2 logs | reduction of HAV in plasma [3]: 2 logs | log10 reduction of Escherichia coli B ([5]; 10^−5 M in PBS, 1 minute): 0.6 log10 | percentage reduction of Escherichia coli B ([5]; 10^−5 M in PBS, 1 minute): 75% | log10 reduction of Escherichia coli B ([5]; 10^−5 M in PBS, 10 minutes): 1.6 log10 | percentage reduction of Escherichia coli B ([5]; 10^−5 M in PBS, 10 minutes): 97% | log10 reduction of Escherichia coli B ([5]; 10^−5 M in PBS, 30 minutes): > 5.5 log10 | loss of infectivity of E. coli B in the absence of long-wavelength UV light ([5]; porphyrin without long-wavelength UV light): did not result in any loss of infectivity | CHO colony count [7, 9]: 189 cfu/well | CHO colony count [7, 10]: 320 cfu/well | CHO colony count [7, 12]: 310 cfu/well

CCCC[n+]1ccc(-c2c3nc(c(-c4cc[n+](CCCC)cc4)c4ccc([nH]4)c(-c4cc[n+](CCCC)cc4)c4nc(c(-c5cc[n+](CCCC)cc5)c5ccc2[nH]5)C=C4)C=C3)cc1 [TPyPH2(N-Bu), tetrakis (4-n-butylpyridiniumyl) porphyrin]
reduction of HAV ([3]; 1 minute (first of five values)): 0.1 log10 | reduction of HAV ([3]; 10 minutes (second of five values)): 1.5 log10 | reduction of HAV ([3]; 30 minutes (third of five values)): 1.6 log10 | reduction of HAV ([3]; 90 minutes (last of five values)): > 3.3 log10 | reduction of HAV ([3]; fourth of five values, its time is not given): 2.7 log10 | CHO colony count [7, 9]: no colony forming units detected | CHO colony count [7, 11]: 186 cfu/well

C=CC1=C(C)c2cc3[nH]c(cc4nc(cc5[nH]c(cc1n2)c(C)c5CCC(=O)O)C(CCC(=O)O)=C4C)c(C)c3C=C [protoporphyrin IX]
inactivation of E. coli B [8]: 0.3 log10 cfu/ml
